The record followed here is patent US20210261512A1, “NOVEL COMPOUNDS” (INFLAZOME LIMITED, priority 2018, published 2021).

Molecules are shown by their SMILES.

Usually IC50 stands for the concentration at which inhibition is half-maximal. In general, AUC refers to the area under the concentration-time curve, a measure of exposure. A higher AUC goes with more exposure. In general, clearance refers to a measure of how efficiently the substance is removed, as volume per time. A higher clearance goes with efficient removal. In general, half-life refers to the time in which the quantity being followed falls by half. Higher therefore signals slow decline.

Data set [1] has as its target T1, NLRP3 (Homo sapiens, UniProt Q96P20). In words: THP-1 cells pyroptosis assay. To be noted: LPS 1.0 μg/ml, nigericin 5 μM, resazurin readout, 10 μM top dose (Example 2: top dose of 30 μM). Also on record: Seed THP-1 cells (25,000 cells/well) containing 1.0 μg/ml LPS; host or cells: THP-1. The data set is classed as cell-based. The gist of the method: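 Pyroptosis induced by 5 μM nigericin (1 h) in LPS-primed (1 μg/ml) THP-1 cells, 25,000/well in serum-free RPMI, after 3 h compound pre-treatment (8 points, 10 μM top unless stated). Surviving cells measured with 100 μM resazurin, Ex 560/Em 590; IC50 via variable-slope 4-parameter regression.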
(Resazurin is reduced to fluorescent resorufin, in cell work by metabolically active cells.)

Data set [2] concerns the target T1, NLRP3. In words: Human whole blood IL1β release assay. The class given is cell-based. Conditions: LPS 1 μg/ml, nigericin 10 μM, IL-1β AlphaLisa, 10 μM top dose (Example 2: top dose of 30 μM), read-out: HWB IC50. The gist of the method:
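Healthy-donor heparinised human whole blood with 1 μg/ml LPS, compound (8-point half-log dilution, 10 μM top dose unless stated; 0.1% DMSO vehicle) for 3 h at 37 °C, then nigericin 10 μM final for 1 h. Supernatant IL-1β by AlphaLISA; IC50 from 4-parameter variable-slope fit.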
In general terms: In Alpha technology, singlet oxygen from a donor bead excites a nearby acceptor bead.

Data set [3] is described as follows: PK, intravenous administration. The class given is in vivo. Conditions: rat, plasma, male Sprague Dawley rats, dose about 1 mg/kg; for Vd: read-out: Vdss. The method, boiled down:
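Male Sprague Dawley rats (6-9 weeks); IV dosing via tail vein as solution in DMSO:water or DMSO:PBS (10:90), oral dosing in 0.5% methylcellulose after overnight fasting. Plasma sampled at 8 time-points to 24 h; parameters derived from LC-MS/MS data.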

T1 sequence (Q96P20 whole entry): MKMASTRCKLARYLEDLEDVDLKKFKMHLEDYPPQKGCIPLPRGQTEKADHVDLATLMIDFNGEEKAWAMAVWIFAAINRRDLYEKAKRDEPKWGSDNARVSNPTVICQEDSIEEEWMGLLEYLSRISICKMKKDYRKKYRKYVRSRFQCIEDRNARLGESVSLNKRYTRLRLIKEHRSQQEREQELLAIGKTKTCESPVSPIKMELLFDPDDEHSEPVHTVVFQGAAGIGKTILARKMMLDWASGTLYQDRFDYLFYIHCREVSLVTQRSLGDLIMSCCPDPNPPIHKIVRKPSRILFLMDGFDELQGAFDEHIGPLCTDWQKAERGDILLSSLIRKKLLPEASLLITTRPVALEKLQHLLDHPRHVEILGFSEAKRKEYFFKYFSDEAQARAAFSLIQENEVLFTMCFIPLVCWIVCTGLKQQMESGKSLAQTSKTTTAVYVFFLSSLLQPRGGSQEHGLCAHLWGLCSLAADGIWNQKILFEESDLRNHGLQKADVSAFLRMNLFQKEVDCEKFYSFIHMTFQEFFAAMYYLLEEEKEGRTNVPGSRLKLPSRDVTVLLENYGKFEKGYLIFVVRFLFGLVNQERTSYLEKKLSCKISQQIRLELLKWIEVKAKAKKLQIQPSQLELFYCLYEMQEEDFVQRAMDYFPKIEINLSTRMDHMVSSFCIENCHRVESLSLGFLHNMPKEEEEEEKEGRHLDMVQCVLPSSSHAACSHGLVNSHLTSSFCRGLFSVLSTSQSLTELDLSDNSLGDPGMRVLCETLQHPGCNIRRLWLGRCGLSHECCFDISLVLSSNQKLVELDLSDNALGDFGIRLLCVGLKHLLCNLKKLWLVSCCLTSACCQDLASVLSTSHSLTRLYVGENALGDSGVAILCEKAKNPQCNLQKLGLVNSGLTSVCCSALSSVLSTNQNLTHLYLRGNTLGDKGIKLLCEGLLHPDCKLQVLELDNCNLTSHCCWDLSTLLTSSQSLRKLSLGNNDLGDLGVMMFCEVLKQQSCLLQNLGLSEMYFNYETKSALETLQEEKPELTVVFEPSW

`CC(C)c1cc(F)cc(-c2ccncc2)c1Cc1nnc(S(=O)(=O)N2CCC(CN(C)C)C2)[nH]1` (stereo not drawn) [Example 153, 1-(1-((5-(4-fluoro-2-isopropyl-6-(pyridin-4-yl)benzyl)-4H-1,2,4-triazol-3-yl)sulfonyl)pyrrolidin-3-yl)-N,N-dimethylmethanamine]: the IC50 at NLRP3 [1] was not above 500 nM. On NLRP3 [2], the IC50 is not above 5000 nM. Further, in data set [3], the AUC turned out to be 198 ng·h/mL, the clearance was 84.1 mL/min/kg, the half-life is 0.36 h and the Vd was 2.66 L/kg.

Regarding `CCN(CC)CCNS(=O)(=O)c1nnc(Nc2c3c(cc4c2CCC4)CCC3)[nH]1` [Example 81, N-(2-(diethylamino)ethyl)-5-((1,2,3,5,6,7-hexahydro-s-indacen-4-yl)amino)-4H-1,2,4-triazole-3-sulfonamide], on NLRP3 [1], the IC50 is not above 500 nM. Besides, the IC50 at NLRP3 [2] is not above 1000 nM. In data set [3], the AUC worked out at 278 ng·h/mL, the clearance came out at 59.9 mL/min/kg, the half-life is 1.5 h and the Vd stood at 4.61 L/kg.

For `CN(C)CCNS(=O)(=O)c1nnc(Nc2c3c(cc4c2CCC4)CCC3)[nH]1` [Example 94, N-(2-(dimethylamino)ethyl)-5-((1,2,3,5,6,7-hexahydro-s-indacen-4-yl)amino)-4H-1,2,4-triazole-3-sulfonamide], the IC50 against NLRP3 [1] is not above 1000 nM. Moreover, the IC50 at NLRP3 [2] is not above 1000 nM. In data set [3], the AUC is 354 ng·h/mL, the clearance amounted to 47.1 mL/min/kg, the half-life was 1.3 h and the Vd was 3.21 L/kg.

`COc1cc(-c2c(C)cc3c(c2Nc2nnc(S(=O)(=O)N4CCC(N(C)C)CC4)[nH]2)CCC3)ccn1` [Example 216, 1-((5-((5-(2-methoxypyridin-4-yl)-6-methyl-2,3-dihydro-1H-inden-4-yl)amino)-4H-1,2,4-triazol-3-yl)sulfonyl)-N,N-dimethylpiperidin-4-amine] yielded an IC50 against NLRP3 [1] not above 500 nM. Also, the IC50 on NLRP3 [2] is not above 1000 nM. In addition, in data set [3], the AUC came to 224 ng·h/mL, the clearance is 72.3 mL/min/kg, the half-life was 2.18 h and the Vd was found to be 6.41 L/kg.

`COc1cc(-c2cc(F)cc(C(C)C)c2Oc2nnc(S(=O)(=O)N3CCC(CN(C)C)C3)[nH]2)ccn1` (stereo not drawn) [Example 69, 1-(1-((5-(4-fluoro-2-isopropyl-6-(2-methoxypyridin-4-yl)phenoxy)-4H-1,2,4-triazol-3-yl)sulfonyl)pyrrolidin-3-yl)-N,N-dimethylmethanamine] came in with an IC50 against NLRP3 [1] not above 1000 nM. Moreover, on NLRP3 [2], the IC50 is not above 1000 nM. For the same molecule, in data set [3], the AUC amounted to 267 ng·h/mL, the clearance stood at 65.5 mL/min/kg, the half-life is 0.71 h and the Vd was 1.29 L/kg.

In turn, `CN(C)CCCS(=O)(=O)c1nnc(Nc2c3c(cc4c2CCC4)CCC3)[nH]1` [Example 48, 5-((3-(Dimethylamino)propyl)sulfonyl)-N-(1,2,3,5,6,7-hexahydro-s-indacen-4-yl)-4H-1,2,4-triazol-3-amine] had an IC50 on NLRP3 [1] not above 500 nM. On NLRP3 [2], the IC50 is not above 500 nM. Moreover, in data set [3], the AUC was 196 ng·h/mL, the clearance was 85 mL/min/kg, the half-life was 0.8 h and the Vd came out at 3.69 L/kg.

Molecule `CC(C)(O)Cn1ccc(S(=O)(=O)c2nnc(Nc3c4c(cc5c3CCC5)CCC4)[nH]2)n1` [Example 328, 1-(3-((5-((1,2,3,5,6,7-hexahydro-s-indacen-4-yl)amino)-4H-1,2,4-triazol-3-yl)sulfonyl)-1H-pyrazol-1-yl)-2-methylpropan-2-ol] returned an IC50 on NLRP3 [1] not above 500 nM. Besides, the IC50 on NLRP3 [2] was not above 10000 nM. Also, in data set [3], the AUC is 1240 ng·h/mL, the clearance is 13.5 mL/min/kg, the half-life was 0.653 h and the Vd is 0.518 L/kg.

`CC(C)N1CCC2(C1)CN(S(=O)(=O)c1nnc(Nc3c4c(cc5c3CCC5)CCC4)[nH]1)C2` [Example 264, N-(1,2,3,5,6,7-hexahydro-s-indacen-4-yl)-5-((6-isopropyl-2,6-diazaspiro[3.4]octan-2-yl)sulfonyl)-4H-1,2,4-triazol-3-amine] showed an IC50 against NLRP3 [1] not above 500 nM. In addition, the IC50 on NLRP3 [2] is not above 500 nM. Further, in data set [3], the AUC is 280 ng·h/mL, the clearance came to 59.6 mL/min/kg, the half-life is 1.89 h and the Vd was 5.78 L/kg.

`COc1cc(-c2ccc3c(c2Nc2nnc(S(=O)(=O)N4CCC(N(C)C)CC4)[nH]2)CCO3)ccn1` [Example 226, 1-((5-((5-(2-methoxypyridin-4-yl)-2,3-dihydrobenzofuran-4-yl)amino)-4H-1,2,4-triazol-3-yl)sulfonyl)-N,N-dimethylpiperidin-4-amine]: the IC50 against NLRP3 [1] was not above 500 nM. For the same molecule, the IC50 on NLRP3 [2] was not above 1000 nM. For the same molecule, in data set [3], the AUC was found to be 216 ng·h/mL, the clearance came to 77.2 mL/min/kg, the half-life was 0.78 h and the Vd was found to be 1.48 L/kg.

Molecule `COc1cc(-c2cc(F)cc(C(C)C)c2Oc2nnc(S(=O)(=O)N3CC4(CCN(C)C4)C3)[nH]2)ccn1` [Example 250, 2-((5-(4-fluoro-2-isopropyl-6-(2-methoxypyridin-4-yl)phenoxy)-4H-1,2,4-triazol-3-yl)sulfonyl)-6-methyl-2,6-diazaspiro[3.4]octane] registered an IC50 on NLRP3 [1] not above 500 nM. At NLRP3 [2], the IC50 was not above 5000 nM. In data set [3], the AUC came out at 392 ng·h/mL, the clearance stood at 55.2 mL/min/kg, the half-life is 0.26 h and the Vd amounted to 0.6 L/kg.

Regarding `CN1CCCC1CCS(=O)(=O)c1nnc(Nc2c3c(cc4c2CCC4)CCC3)[nH]1` (stereo not drawn) [Example 60, N-(1,2,3,5,6,7-hexahydro-s-indacen-4-yl)-3-((2-(1-methylpyrrolidin-2-yl)ethyl)sulfonyl)-1H-1,2,4-triazol-5-amine], the IC50 against NLRP3 [1] is not above 1000 nM. The IC50 on NLRP3 [2] is not above 5000 nM. In data set [3], the AUC was determined as 278 ng·h/mL, the clearance amounted to 60 mL/min/kg, the half-life was 1 h and the Vd was found to be 3.24 L/kg.

For the molecule `CN1CCC2(C1)CN(S(=O)(=O)c1nnc(Nc3c4c(cc5c3CCC5)CCC4)[nH]1)C2` [Example 274, N-(1,2,3,5,6,7-hexahydro-s-indacen-4-yl)-5-((6-methyl-2,6-diazaspiro[3.4]octan-2-yl)sulfonyl)-4H-1,2,4-triazol-3-amine], on NLRP3 [1], the IC50 was not above 500 nM. In addition, the IC50 at NLRP3 [2] is not above 500 nM. Besides, in data set [3], the AUC worked out at 271 ng·h/mL, the clearance worked out at 61.6 mL/min/kg, the half-life is 1.64 h and the Vd worked out at 6.2 L/kg.

As to `CC(C)N1CC(S(=O)(=O)c2nnc(Nc3c4c(cc5c3CCC5)CCC4)[nH]2)C1` [Example 22, N-(1,2,3,5,6,7-hexahydro-s-indacen-4-yl)-5-((1-isopropylazetidin-3-yl)sulfonyl)-4H-1,2,4-triazol-3-amine], on NLRP3 [1], the IC50 was not above 5000 nM. Also, the IC50 on NLRP3 [2] was not above 10000 nM. Also, in data set [3], the AUC is 364 ng·h/mL, the clearance turned out to be 45.8 mL/min/kg, the half-life was 0.4 h and the Vd turned out to be 1.09 L/kg.

Take `O=S(=O)(c1nnc(Nc2c3c(cc4c2CCC4)CCC3)[nH]1)N1CCC2(CCCN2)CC1` [Example 268, 5-((1,8-diazaspiro[4.5]decan-8-yl)sulfonyl)-N-(1,2,3,5,6,7-hexahydro-s-indacen-4-yl)-4H-1,2,4-triazol-3-amine]: the IC50 on NLRP3 [1] is not above 500 nM. Further, the IC50 at NLRP3 [2] was not above 1000 nM. In data set [3], the AUC is 175 ng·h/mL, the clearance came to 95.3 mL/min/kg, the half-life was 2.52 h and the Vd came out at 12.1 L/kg.

At NLRP3 [1], `CN1CCC12CCN(S(=O)(=O)c1nnc(Nc3c4c(cc5c3CCC5)CCC4)[nH]1)CC2` [Example 270, N-(1,2,3,5,6,7-hexahydro-s-indacen-4-yl)-5-((1-methyl-1,7-diazaspiro[3.5]nonan-7-yl)sulfonyl)-4H-1,2,4-triazol-3-amine] returned an IC50 not above 500 nM. The IC50 at NLRP3 [2] was not above 500 nM. In addition, in data set [3], the AUC was determined as 236 ng·h/mL, the clearance stood at 71 mL/min/kg, the half-life is 2.53 h and the Vd was determined as 9.16 L/kg.
